Measurements: ChEMBL document CHEMBL4346657, “Anticancer activity, dual prooxidant/antioxidant effect and apoptosis induction profile of new bichalcophene-5-carboxamidines” (Eur J Med Chem, 2019)
The source made the active and inactive calls. The rule behind the calls is not given here.

Key:
[1] = tested on: Panel NCI-60 (60 carcinoma cell lines); test: Antiproliferative activity against human NCI60 cells assessed as growth inhibition after 48 hrs by sulforhodamine B assay; assay type: functional
WI-38 = test: Cytotoxicity activity against human WI38 cells assessed as reduction in cell viability measured after 48 hrs by MTT assay; assay type: cell-based; conditions: WI-38, 48 h
[2] = Selectivity index, ratio of IC50 for human WI38 cells to GI50 for human NCI60 cells
MDA-MB-231 = test: Antiproliferative activity against human MDA-MB-231/ATCC cells assessed as growth inhibition after 48 hrs by sulforhodamine B assay; assay type: functional; conditions: MDA-MB-231, 48 h
SN12C = test: Antiproliferative activity against human SN12C cells assessed as growth inhibition after 48 hrs by sulforhodamine B assay; assay type: functional
RXF 393 = test: Antiproliferative activity against human RXF393 cells assessed as growth inhibition after 48 hrs by sulforhodamine B assay; assay type: functional; conditions: RXF 393, 48 h
CAKI-1 = test: Antiproliferative activity against human CAKI-1 cells assessed as growth inhibition after 48 hrs by sulforhodamine B assay; assay type: functional; conditions: CAKI-1, 48 h
786-0 = test: Antiproliferative activity against human 786-0 cells assessed as growth inhibition after 48 hrs by sulforhodamine B assay; assay type: functional; conditions: 786-0, 48 h
OVCAR-5 = test: Antiproliferative activity against human OVCAR5 cells assessed as growth inhibition after 48 hrs by sulforhodamine B assay; assay type: functional; conditions: OVCAR-5, 48 h
IGROV-1 = test: Antiproliferative activity against human IGROV1 cells assessed as growth inhibition after 48 hrs by sulforhodamine B assay; assay type: functional; conditions: IGROV-1, 48 h
UACC-257 = test: Antiproliferative activity against human UACC257 cells assessed as growth inhibition after 48 hrs by sulforhodamine B assay; assay type: functional; conditions: UACC-257, 48 h
SK-MEL-5 = test: Antiproliferative activity against human SK-MEL-5 cells assessed as growth inhibition after 48 hrs by sulforhodamine B assay; assay type: functional; conditions: SK-MEL-5, 48 h
SK-MEL-28 = test: Antiproliferative activity against human SK-MEL-28 cells assessed as growth inhibition after 48 hrs by sulforhodamine B assay; assay type: functional; conditions: SK-MEL-28, 48 h
M14 = test: Antiproliferative activity against human M14 cells assessed as growth inhibition after 48 hrs by sulforhodamine B assay; assay type: functional; conditions: M14, 48 h
LOX IMVI = test: Antiproliferative activity against human LOXIMVI cells assessed as growth inhibition after 48 hrs by sulforhodamine B assay; assay type: functional
SNB-19 = test: Antiproliferative activity against human SNB19 cells assessed as growth inhibition after 48 hrs by sulforhodamine B assay; assay type: functional; conditions: SNB-19, 48 h
SF-539 = test: Antiproliferative activity against human SF539 cells assessed as growth inhibition after 48 hrs by sulforhodamine B assay; assay type: functional; conditions: SF-539, 48 h
KM12 = test: Antiproliferative activity against human KM12 cells assessed as growth inhibition after 48 hrs by sulforhodamine B assay; assay type: functional; conditions: KM12, 48 h
HCT-15 = test: Antiproliferative activity against human HCT15 cells assessed as growth inhibition after 48 hrs by sulforhodamine B assay; assay type: functional; conditions: HCT-15, 48 h
HCC 2998 = test: Antiproliferative activity against human HCC2998 cells assessed as growth inhibition after 48 hrs by sulforhodamine B assay; assay type: functional; conditions: HCC 2998, 48 h
NCI-H23 = test: Antiproliferative activity against human NCI-H23 cells assessed as growth inhibition after 48 hrs by sulforhodamine B assay; assay type: functional; conditions: NCI-H23, 48 h
A549 = test: Antiproliferative activity against human A549/ATCC cells assessed as growth inhibition after 48 hrs by sulforhodamine B assay; assay type: functional; conditions: A549, 48 h
SR = test: Antiproliferative activity against human SR cells assessed as growth inhibition after 48 hrs by sulforhodamine B assay; assay type: functional
MOLT-4 = test: Antiproliferative activity against human MOLT4 cells assessed as growth inhibition after 48 hrs by sulforhodamine B assay; assay type: functional; conditions: MOLT-4, 48 h
HL-60(TB) = test: Antiproliferative activity against human HL-60(TB) cells assessed as growth inhibition after 48 hrs by sulforhodamine B assay; assay type: functional; conditions: HL-60, 48 h
BT-549 = test: Antiproliferative activity against human BT549 cells assessed as growth inhibition after 48 hrs by sulforhodamine B assay; assay type: functional; conditions: BT-549, 48 h
T47D = test: Antiproliferative activity against human T47D cells assessed as growth inhibition after 48 hrs by sulforhodamine B assay; assay type: functional
MDA-MB-468 = test: Antiproliferative activity against human MDA-MB-468 cells assessed as growth inhibition after 48 hrs by sulforhodamine B assay; assay type: functional; conditions: MDA-MB-468, 48 h
[3] = Haemolytic activity in human erythrocytes assessed as induction of hemolysis at 5 mM after 30 mins relative to H202; assay type: cell-based, Erythrocyte; conditions: read-out: Activity
[4] = Haemolytic activity in human erythrocytes assessed as induction of hemolysis at 2.5 mM after 30 mins relative to H202; assay type: cell-based, Erythrocyte; conditions: erythrocytes, read-out: Activity
[5] = Antioxidant activity assessed as DPPH radical scavenging activity incubated in dark for 30 mins by spectrophotometric method relative to control; assay type: functional; set-up: concentration or dose not given beside the values
[6] = Antioxidant activity assessed as hydroxyl radical scavenging activity after 1 hr by salicylic acid-based Fenton reaction assay; assay type: functional
HCT-116 [7] = test: Induction of apoptosis in human HCT116 cells assessed as increase in caspase 3 mRNA expression at 100 nM after 6 hrs hrs by SYBR green dye-based qRT-PCR analysis relative to control; assay type: functional
HCT-116 [8] = test: Induction of apoptosis in human HCT116 cells assessed as increase in caspase 9 mRNA expression at 100 nM after 6 hrs hrs by SYBR green dye-based qRT-PCR analysis relative to control; assay type: functional
HCT-116 [9] = test: Induction of apoptosis in human HCT116 cells assessed as increase in p53 mRNA expression at 100 nM after 6 hrs hrs by SYBR green dye-based qRT-PCR analysis relative to control; assay type: functional
HOP-92 = test: Antiproliferative activity against human HOP92 cells assessed as growth inhibition after 48 hrs by sulforhodamine B assay; assay type: functional; conditions: HOP-92, 48 h

Work on `COc1ccc(-c2ccc(-c3ccc(C(=N)N)o3)o2)cc1` yielded a GI50 [1] of 1740 nM, an LC50 [1] of 20400 nM and a TGI [1] of 5890 nM. For the same compound, the IC50 (WI-38) was 72900 nM, the “Selectivity Index” value [2] was 41.8 and the GI50 (MDA-MB-231) was 1900 nM. It also gave a GI50 (SN12C) of 2020 nM, a GI50 (RXF 393) of 2120 nM and a GI50 (CAKI-1) of 1750 nM. It also gave a GI50 (786-0) of 2220 nM, a GI50 (OVCAR-5) of 2430 nM and a GI50 (IGROV-1) of 1730 nM. It also gave a GI50 (UACC-257) of 11100 nM, a GI50 (SK-MEL-5) of 2800 nM and a GI50 (SK-MEL-28) of 1670 nM. For the same compound, the GI50 (M14) was 1470 nM, the GI50 (LOX IMVI) was 1480 nM and the GI50 (SNB-19) was 1990 nM. For the same compound, the GI50 (SF-539) was 1890 nM, the GI50 (KM12) was 590 nM and the GI50 (HCT-15) was 670 nM. It also gave a GI50 (HCC 2998) of 1580 nM, a GI50 (NCI-H23) of 4340 nM and a GI50 (A549) of 1490 nM. For the same compound, the GI50 (SR) was 420 nM, the GI50 (MOLT-4) was 1200 nM and the GI50 (HL-60(TB)) was 1230 nM. For the same compound, the GI50 (BT-549) was 4550 nM, the GI50 (T47D) was 1530 nM and the GI50 (MDA-MB-468) was 860 nM. For the same compound, the hemolysis at 0.5 h, 5000 µM [3] was 36.3%, the hemolysis at 0.5 h, 2500 µM [4] was 8.1% and the inhibition [5] was 61.7%. The Activity [6] was “Active”, the “fold change (FC)” value (HCT-116 [7]) was 2.67 and the “fold change (FC)” value (HCT-116 [8]) was 2.31. The “fold change (FC)” value (HCT-116 [9]) was 0.94.

For `N=C(N)c1ccc(-c2ccc(-c3ccccc3)o2)o1`, the GI50 [1] was 2400 nM, the LC50 [1] was 22400 nM and the TGI [1] was 6910 nM. The IC50 (WI-38) was 68700 nM, the “Selectivity Index” value [2] was 28.6 and the GI50 (MDA-MB-231) was 2040 nM. For the same compound, the GI50 (SN12C) was 3120 nM, the GI50 (RXF 393) was 2330 nM and the GI50 (CAKI-1) was 3400 nM. It also gave a GI50 (786-0) of 1740 nM, a GI50 (OVCAR-5) of 2700 nM and a GI50 (IGROV-1) of 2890 nM. For the same compound, the GI50 (UACC-257) was 2520 nM, the GI50 (SK-MEL-5) was 1750 nM and the GI50 (SK-MEL-28) was 1900 nM. It also gave a GI50 (M14) of 1620 nM, a GI50 (LOX IMVI) of 1700 nM and a GI50 (SNB-19) of 3010 nM. The GI50 (SF-539) was 1950 nM, the GI50 (KM12) was 2610 nM and the GI50 (HCT-15) was 1160 nM. The GI50 (HCC 2998) was 1610 nM, the GI50 (NCI-H23) was 5780 nM and the GI50 (HOP-92) was 1850 nM. It also gave a GI50 (A549) of 3550 nM, a GI50 (MOLT-4) of 3310 nM and a GI50 (HL-60(TB)) of 2180 nM. For the same compound, the GI50 (BT-549) was 4130 nM, the GI50 (MDA-MB-468) was 1640 nM and the hemolysis at 0.5 h, 5000 µM [3] was 30.1%. The hemolysis at 0.5 h, 2500 µM [4] was 7%, the inhibition [5] was 30.9% and the Activity [6] was “Active”. For the same compound, the “fold change (FC)” value (HCT-116 [7]) was 2.33, the “fold change (FC)” value (HCT-116 [8]) was 2.28 and the “fold change (FC)” value (HCT-116 [9]) was 0.95.

For `COc1cc(-c2ccc(-c3ccc(C(=N)N)s3)s2)cc(OC)c1OC`, the GI50 [1] was 1910 nM, the LC50 [1] was 20900 nM and the TGI [1] was 4160 nM. The IC50 (WI-38) was 65700 nM, the “Selectivity Index” value [2] was 34.4 and the GI50 (MDA-MB-231) was 1880 nM. It also gave a GI50 (SN12C) of 1610 nM, a GI50 (RXF 393) of 1660 nM and a GI50 (CAKI-1) of 1700 nM. It also gave a GI50 (786-0) of 1730 nM, a GI50 (OVCAR-5) of 1470 nM and a GI50 (IGROV-1) of 1980 nM. It also gave a GI50 (UACC-257) of 2220 nM, a GI50 (SK-MEL-5) of 1520 nM and a GI50 (SK-MEL-28) of 1580 nM. It also gave a GI50 (M14) of 1700 nM, a GI50 (LOX IMVI) of 1610 nM and a GI50 (SNB-19) of 2160 nM. The GI50 (SF-539) was 1580 nM, the GI50 (KM12) was 1730 nM and the GI50 (HCT-15) was 1910 nM. For the same compound, the GI50 (HCC 2998) was 1760 nM, the GI50 (NCI-H23) was 2610 nM and the GI50 (HOP-92) was 1140 nM. The GI50 (A549) was 2140 nM, the GI50 (SR) was 1830 nM and the GI50 (MOLT-4) was 2400 nM. It also gave a GI50 (HL-60(TB)) of 2700 nM, a GI50 (BT-549) of 1770 nM and a GI50 (T47D) of 1700 nM. It also gave a GI50 (MDA-MB-468) of 1820 nM, a hemolysis at 0.5 h, 5000 µM [3] of 38.7% and a hemolysis at 0.5 h, 2500 µM [4] of 11.3%. The inhibition [5] was 64.1%, the Activity [6] was “Active” and the “fold change (FC)” value (HCT-116 [7]) was 2.67. For the same compound, the “fold change (FC)” value (HCT-116 [8]) was 2.81 and the “fold change (FC)” value (HCT-116 [9]) was 1.01.
